In ChEMBL document CHEMBL5696442, “Discovery of type II inhibitors of TGFβ-activated kinase 1 (TAK1) and mitogen-activated protein kinase kinase kinase kinase 2 (MAP4K2)” (J Med Chem, 2015) one finds inhibition and percent of control data, which are given here for 3 compounds.

Broadly, the inhibition is the change of the read-out against control, counted positive when it falls.

Assay [1] concerns the target Serine/threonine-protein kinase 4 (Homo sapiens) (UniProt Q13043). As to the kind of experiment: Inhibition of MST1 Lys1 labeling site harbouring ETGQIVAIKQVPVESDLQEIIK in human Huh-7 cell lysate at 1 uM by KiNativ Profiling analysis relative to control.
For assay [2], the target named is Cyclin-dependent kinase 17 (Homo sapiens) (UniProt Q00537). As to the kind of experiment: Inhibition of PCTAIRE2 Lys2 labeling site harbouring DLKPQNLLINEKGELKLADFGLAR in human Huh-7 cells at 1 uM by KiNativ Profiling analysis relative to control. In kind it is cell-based.
Chain of Cyclin-dependent kinase 17 (Homo sapiens) (Q00537 whole entry, looked up): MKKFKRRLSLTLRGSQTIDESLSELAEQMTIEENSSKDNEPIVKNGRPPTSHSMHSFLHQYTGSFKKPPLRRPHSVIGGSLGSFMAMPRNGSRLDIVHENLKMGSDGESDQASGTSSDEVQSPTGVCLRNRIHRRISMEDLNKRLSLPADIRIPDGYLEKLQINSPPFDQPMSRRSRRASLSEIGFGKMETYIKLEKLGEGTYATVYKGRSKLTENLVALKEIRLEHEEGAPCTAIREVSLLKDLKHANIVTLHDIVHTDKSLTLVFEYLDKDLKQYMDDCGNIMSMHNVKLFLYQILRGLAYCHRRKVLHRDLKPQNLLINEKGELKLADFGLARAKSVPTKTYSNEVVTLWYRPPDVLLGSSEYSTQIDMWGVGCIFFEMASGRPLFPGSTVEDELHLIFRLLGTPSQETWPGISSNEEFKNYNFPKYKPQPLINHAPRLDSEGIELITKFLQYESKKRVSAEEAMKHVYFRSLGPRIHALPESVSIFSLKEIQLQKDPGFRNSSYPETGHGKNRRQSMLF
Assay [3] addresses Dual specificity mitogen-activated protein kinase kinase 1 (Homo sapiens) (UniProt Q02750). Nature of the assay: Inhibition of MAP2K1 Lys2 labeling site harbouring IMHRDVKPSNILVNSR in human Huh-7 cell lysate at 1 uM by KiNativ Profiling analysis relative to control. In kind it is subcellular.
The target in assay [4] is Serine/threonine-protein kinase 38-like (Homo sapiens) (UniProt Q9Y2H1). As to the kind of experiment: Inhibition of NDR2 Lys2 labeling site in human A-375 cells at 0.5 uM by KiNativ Profiling analysis relative to control. In kind it is cell-based.
Chain of Serine/threonine-protein kinase 38-like (Homo sapiens) (Q9Y2H1 2-464 limits assumed): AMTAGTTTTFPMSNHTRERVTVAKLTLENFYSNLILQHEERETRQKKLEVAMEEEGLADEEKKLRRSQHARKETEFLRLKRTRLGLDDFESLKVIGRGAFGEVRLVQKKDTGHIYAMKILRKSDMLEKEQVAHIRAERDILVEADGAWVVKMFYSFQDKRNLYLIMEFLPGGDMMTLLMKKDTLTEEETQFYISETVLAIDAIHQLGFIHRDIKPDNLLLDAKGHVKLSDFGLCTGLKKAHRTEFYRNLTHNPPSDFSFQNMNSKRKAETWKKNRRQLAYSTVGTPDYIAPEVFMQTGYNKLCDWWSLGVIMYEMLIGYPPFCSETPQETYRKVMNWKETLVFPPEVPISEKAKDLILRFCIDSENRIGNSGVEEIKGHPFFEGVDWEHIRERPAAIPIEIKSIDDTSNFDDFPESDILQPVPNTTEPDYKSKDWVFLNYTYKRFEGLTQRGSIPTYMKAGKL
The target of assay [5] is 5'-AMP-activated protein kinase catalytic subunit alpha-1 (Homo sapiens) (UniProt Q13131). Nature of the assay: Inhibition of AMPK-alpha1 (unknown origin) at 1 uM by Ambit Kinomescan binding assay relative to control.
Chain of 5'-AMP-activated protein kinase catalytic subunit alpha-1 (Homo sapiens) (Q13131 whole entry, looked up, the tested form may be a part): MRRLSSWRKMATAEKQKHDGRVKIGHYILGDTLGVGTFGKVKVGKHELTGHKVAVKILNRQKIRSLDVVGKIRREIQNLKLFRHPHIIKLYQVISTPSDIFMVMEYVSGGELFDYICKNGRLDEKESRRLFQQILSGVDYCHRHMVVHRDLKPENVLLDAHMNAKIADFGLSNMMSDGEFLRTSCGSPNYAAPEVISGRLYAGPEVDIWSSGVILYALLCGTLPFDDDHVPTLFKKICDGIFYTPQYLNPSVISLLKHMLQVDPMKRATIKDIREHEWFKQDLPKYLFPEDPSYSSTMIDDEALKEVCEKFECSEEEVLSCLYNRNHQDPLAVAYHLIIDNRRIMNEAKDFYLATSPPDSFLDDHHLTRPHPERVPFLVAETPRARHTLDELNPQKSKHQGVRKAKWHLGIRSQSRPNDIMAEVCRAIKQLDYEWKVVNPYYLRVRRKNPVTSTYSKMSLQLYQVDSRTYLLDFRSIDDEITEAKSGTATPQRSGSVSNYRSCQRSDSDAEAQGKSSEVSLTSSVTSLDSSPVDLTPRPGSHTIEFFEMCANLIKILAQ
The test system of assay [6] is Tyrosine-protein kinase ABL1 (Homo sapiens), P00519 [H396P]. Nature of the assay: Inhibition of phosphorylated ABL1 H396P mutant (unknown origin) at 1 uM by Ambit Kinomescan binding assay relative to control; values are per cent of control.
Assay [7] deals with T1, Ephrin type-B receptor 4 (Homo sapiens) (UniProt P54760).
T1 sequence (whole entry): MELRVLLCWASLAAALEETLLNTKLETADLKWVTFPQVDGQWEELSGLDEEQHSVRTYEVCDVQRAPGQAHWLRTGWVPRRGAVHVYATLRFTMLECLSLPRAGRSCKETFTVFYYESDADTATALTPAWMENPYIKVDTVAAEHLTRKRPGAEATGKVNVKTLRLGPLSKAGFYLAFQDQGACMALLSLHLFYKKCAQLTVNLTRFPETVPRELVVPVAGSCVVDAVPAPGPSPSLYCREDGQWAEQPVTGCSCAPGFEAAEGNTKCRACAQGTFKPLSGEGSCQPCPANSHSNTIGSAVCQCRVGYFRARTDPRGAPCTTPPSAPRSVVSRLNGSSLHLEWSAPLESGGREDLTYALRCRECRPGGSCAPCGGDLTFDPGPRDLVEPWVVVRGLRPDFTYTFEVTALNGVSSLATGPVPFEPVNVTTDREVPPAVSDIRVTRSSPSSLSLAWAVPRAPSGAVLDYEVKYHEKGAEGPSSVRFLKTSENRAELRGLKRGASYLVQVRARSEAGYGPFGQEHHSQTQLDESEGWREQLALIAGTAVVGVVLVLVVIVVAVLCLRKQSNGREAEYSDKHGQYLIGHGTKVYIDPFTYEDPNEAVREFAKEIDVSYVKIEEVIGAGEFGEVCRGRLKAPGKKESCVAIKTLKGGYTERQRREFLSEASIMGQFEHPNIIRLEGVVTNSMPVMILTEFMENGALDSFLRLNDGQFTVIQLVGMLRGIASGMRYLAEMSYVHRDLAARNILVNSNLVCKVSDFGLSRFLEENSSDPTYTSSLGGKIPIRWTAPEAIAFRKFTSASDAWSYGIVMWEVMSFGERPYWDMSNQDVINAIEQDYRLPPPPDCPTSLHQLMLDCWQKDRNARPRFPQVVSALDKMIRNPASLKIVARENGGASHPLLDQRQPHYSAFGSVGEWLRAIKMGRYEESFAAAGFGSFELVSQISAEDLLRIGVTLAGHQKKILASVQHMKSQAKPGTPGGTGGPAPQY
As to the kind of experiment: Inhibition of EPHB4 (unknown origin) at 1 uM by Ambit Kinomescan binding assay relative to control.

The target in assay [8] is T2, Serine/threonine-protein kinase greatwall (Homo sapiens) (UniProt Q96GX5).
T2 sequence (whole entry): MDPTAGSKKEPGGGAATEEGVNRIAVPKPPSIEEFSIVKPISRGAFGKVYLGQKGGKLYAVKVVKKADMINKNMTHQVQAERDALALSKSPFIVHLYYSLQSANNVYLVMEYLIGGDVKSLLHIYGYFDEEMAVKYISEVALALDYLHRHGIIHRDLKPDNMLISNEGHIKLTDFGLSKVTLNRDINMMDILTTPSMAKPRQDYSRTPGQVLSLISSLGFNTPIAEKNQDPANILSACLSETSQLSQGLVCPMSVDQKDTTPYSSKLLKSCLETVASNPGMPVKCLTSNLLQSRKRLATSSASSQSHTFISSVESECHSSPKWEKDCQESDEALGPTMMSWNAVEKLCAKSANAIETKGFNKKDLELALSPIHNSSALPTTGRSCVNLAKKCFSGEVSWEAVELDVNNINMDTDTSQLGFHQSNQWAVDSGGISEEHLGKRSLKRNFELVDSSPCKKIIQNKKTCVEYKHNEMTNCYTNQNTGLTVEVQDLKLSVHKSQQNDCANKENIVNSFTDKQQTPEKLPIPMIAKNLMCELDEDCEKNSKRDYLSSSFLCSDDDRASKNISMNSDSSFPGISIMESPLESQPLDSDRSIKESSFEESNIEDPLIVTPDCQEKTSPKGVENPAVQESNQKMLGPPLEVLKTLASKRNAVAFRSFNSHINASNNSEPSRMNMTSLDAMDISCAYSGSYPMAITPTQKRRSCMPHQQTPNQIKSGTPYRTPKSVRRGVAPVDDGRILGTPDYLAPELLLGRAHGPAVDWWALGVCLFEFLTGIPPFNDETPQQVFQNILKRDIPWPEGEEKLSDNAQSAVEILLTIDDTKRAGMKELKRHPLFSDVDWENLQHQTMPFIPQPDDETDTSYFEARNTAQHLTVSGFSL
As to the kind of experiment: Inhibition of MASTL ATP labeling site in human Huh-7 cells at 10 uM by KiNativ Profiling analysis relative to control. In kind it is cell-based.

The target in assay [9] is 5'-AMP-activated protein kinase catalytic subunit alpha-1 (Homo sapiens) (UniProt Q13131). As to the kind of experiment: Inhibition of AMPKa1 ATP labeling site in human Huh-7 cells at 10 uM by KiNativ Profiling analysis relative to control. In kind it is cell-based.
For assay [10], the target named is Tyrosine-protein kinase JAK3 (Homo sapiens) (UniProt P52333). Nature of the assay: Inhibition of JAK3 JH1catalytic domain (unknown origin) at 10 uM by Ambit Kinomescan binding assay relative to control; values are per cent of control.
Chain of Tyrosine-protein kinase JAK3 (Homo sapiens) (P52333 whole entry, the tested form may be a part): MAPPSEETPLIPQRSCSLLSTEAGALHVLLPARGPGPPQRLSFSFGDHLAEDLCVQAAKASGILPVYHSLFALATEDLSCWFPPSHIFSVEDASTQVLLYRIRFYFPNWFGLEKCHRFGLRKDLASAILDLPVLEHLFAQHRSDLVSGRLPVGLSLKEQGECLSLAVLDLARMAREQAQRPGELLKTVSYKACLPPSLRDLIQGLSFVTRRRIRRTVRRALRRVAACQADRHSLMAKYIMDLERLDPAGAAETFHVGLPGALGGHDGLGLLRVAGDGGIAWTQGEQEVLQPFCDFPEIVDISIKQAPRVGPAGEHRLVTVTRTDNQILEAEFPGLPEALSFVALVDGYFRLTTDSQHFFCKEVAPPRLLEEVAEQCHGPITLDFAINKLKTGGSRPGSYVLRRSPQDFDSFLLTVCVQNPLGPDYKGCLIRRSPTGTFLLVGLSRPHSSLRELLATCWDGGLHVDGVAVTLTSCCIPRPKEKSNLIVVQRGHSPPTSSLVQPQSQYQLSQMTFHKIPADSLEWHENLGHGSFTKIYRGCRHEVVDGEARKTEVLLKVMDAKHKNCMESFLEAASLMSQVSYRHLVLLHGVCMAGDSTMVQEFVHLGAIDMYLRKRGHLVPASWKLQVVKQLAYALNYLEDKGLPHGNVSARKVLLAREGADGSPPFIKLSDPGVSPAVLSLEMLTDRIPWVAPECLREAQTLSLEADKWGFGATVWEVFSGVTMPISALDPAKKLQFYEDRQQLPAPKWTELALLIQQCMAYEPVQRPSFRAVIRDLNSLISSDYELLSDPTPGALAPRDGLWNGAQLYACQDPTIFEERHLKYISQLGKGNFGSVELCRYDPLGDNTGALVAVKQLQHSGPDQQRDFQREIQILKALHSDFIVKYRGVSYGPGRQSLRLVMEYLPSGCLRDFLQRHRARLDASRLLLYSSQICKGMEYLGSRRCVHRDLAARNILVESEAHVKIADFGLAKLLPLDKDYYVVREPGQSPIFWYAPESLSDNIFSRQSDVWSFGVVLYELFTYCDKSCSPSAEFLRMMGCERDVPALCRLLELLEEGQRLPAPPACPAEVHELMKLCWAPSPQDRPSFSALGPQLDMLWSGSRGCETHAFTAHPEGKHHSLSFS
The target of assay [11] is Tyrosine-protein kinase Lyn (Homo sapiens, UniProt P07948). As to the kind of experiment: Inhibition of LYN (unknown origin) at 10 uM by Ambit Kinomescan binding assay relative to control; values are per cent of control.
Chain of Tyrosine-protein kinase Lyn (P07948 2-512 limits assumed): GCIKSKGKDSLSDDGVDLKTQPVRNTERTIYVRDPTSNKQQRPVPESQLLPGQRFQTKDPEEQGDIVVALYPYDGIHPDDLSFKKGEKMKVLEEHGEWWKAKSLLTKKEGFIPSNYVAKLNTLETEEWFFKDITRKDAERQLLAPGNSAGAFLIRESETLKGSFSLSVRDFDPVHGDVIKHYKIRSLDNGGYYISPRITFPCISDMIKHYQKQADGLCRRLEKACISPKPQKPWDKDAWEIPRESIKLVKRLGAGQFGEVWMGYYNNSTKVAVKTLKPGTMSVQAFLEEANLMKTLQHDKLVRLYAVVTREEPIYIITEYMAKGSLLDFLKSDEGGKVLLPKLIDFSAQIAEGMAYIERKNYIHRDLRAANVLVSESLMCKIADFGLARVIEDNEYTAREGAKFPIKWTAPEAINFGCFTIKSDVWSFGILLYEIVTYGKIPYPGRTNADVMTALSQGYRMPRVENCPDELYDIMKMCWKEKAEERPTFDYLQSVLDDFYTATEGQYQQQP
Assay [12] addresses Peripheral plasma membrane protein CASK (Homo sapiens) (UniProt O14936). Nature of the assay: Inhibition of CASK Lys1 labeling site in human A-375 cells at 0.5 uM by KiNativ Profiling analysis relative to control.

Molecules are shown by their SMILES.

Chain of Dual specificity mitogen-activated protein kinase kinase 1 (Homo sapiens) (Q02750 whole entry): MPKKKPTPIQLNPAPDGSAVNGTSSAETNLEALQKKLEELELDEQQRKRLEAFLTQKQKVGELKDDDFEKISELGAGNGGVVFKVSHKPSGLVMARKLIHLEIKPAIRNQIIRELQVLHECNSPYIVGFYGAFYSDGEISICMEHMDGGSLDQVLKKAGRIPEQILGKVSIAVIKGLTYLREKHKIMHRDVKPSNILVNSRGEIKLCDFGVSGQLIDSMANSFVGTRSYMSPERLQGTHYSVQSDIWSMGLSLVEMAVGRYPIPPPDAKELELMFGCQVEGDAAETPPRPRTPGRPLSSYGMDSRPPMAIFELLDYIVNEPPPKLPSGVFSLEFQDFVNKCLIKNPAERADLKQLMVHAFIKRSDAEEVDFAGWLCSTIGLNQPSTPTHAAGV
Chain of Peripheral plasma membrane protein CASK (Homo sapiens) (O14936 whole entry, looked up): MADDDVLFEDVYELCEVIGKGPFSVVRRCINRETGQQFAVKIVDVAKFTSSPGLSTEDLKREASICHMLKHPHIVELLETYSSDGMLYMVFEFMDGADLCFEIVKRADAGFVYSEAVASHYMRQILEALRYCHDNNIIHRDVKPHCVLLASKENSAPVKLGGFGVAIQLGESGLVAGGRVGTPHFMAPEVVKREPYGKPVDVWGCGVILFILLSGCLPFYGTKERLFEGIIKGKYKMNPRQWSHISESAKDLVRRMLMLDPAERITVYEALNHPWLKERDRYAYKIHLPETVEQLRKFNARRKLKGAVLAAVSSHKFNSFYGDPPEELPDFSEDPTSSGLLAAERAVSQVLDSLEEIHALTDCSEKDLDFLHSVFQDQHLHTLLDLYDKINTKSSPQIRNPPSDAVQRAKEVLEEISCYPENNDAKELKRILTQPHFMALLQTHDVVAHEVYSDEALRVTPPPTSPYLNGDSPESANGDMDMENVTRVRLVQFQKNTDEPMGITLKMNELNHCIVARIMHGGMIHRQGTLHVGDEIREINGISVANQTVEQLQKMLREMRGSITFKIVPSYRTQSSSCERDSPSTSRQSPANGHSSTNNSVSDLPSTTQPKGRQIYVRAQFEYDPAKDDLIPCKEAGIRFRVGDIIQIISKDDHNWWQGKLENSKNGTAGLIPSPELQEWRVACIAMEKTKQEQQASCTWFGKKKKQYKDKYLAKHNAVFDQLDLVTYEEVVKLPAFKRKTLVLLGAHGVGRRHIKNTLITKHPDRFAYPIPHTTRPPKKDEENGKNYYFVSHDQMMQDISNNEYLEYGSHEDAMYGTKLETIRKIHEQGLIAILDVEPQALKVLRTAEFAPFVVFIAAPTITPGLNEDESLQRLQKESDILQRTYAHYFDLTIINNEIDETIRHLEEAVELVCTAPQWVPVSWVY
Chain of Serine/threonine-protein kinase 4 (Homo sapiens) (Q13043 whole entry, looked up): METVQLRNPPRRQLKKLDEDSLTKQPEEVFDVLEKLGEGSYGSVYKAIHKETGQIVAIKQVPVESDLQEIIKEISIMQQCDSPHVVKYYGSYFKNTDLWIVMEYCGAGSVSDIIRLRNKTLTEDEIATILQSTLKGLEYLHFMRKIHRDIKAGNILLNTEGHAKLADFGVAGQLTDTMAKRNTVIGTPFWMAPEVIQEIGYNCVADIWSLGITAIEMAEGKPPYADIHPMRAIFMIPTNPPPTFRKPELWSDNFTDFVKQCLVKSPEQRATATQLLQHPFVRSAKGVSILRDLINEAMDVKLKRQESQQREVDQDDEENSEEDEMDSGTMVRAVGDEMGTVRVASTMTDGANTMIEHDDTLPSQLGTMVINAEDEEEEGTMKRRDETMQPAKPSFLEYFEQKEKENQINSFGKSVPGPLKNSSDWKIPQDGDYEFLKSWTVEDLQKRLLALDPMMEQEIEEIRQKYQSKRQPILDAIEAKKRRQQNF

In the case of `CNc1cc(Oc2cc(C(=O)Nc3cc(N4CCN(C)CC4)cc(C(F)(F)F)c3)ccc2C)ncn1`, the results for the inhibition in assay [1], in assay [2] and in assay [3] were -1.3%, -9.1% and 23.6%, respectively.
Regarding `CCN1CCN(Cc2ccc(NC(=O)c3ccc(C)c(/C=C/c4cnc5[nH]ccc5c4OC)c3)cc2C(F)(F)F)CC1`, the inhibition came to 13.4% in assay [4], 25% in assay [5] and 21% in assay [7]. In addition, in assay [6], the percent of control is 0.8%.
On to `CCN1CCN(Cc2ccc(NC(=O)c3ccc(C)c(Oc4ccnc5[nH]ccc45)c3)cc2C(F)(F)F)CC1`, for which the results for the inhibition in [8], in assay [9] and in assay [12] were 3.9%, 14% and 5.8%, respectively. The percent of control in assay [10] is 2.4%; in assay [11], 0.75%.
